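Cells were grown in 96-well plates and exposed to each compound for 48 hours at five concentrations; endpoints were interpolated linearly between bracketing concentrations, or set to the highest concentration if not reached. GI50: concentration for 50% inhibition of growth. TGI: concentration producing complete growth inhibition.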
Assays:
Assay in all cases: inhibition of tumour cell growth, NCI panel, 48 h
786-0 renal = system: 786-0 renal
A498 renal = system: A498 renal
A549 NSCLC = system: A549 NSCLC
ACHN renal = system: ACHN renal
BT-549 breast = system: BT-549 breast
CAKI-1 renal = system: CAKI-1 renal
CCRF-CEM leukemia = system: CCRF-CEM leukemia
COLO 205 colon = system: COLO 205 colon
DU-145 prostate = system: DU-145 prostate
EKVX NSCLC = system: EKVX NSCLC
HCC-2998 colon = system: HCC-2998 colon
HCT-116 colon = system: HCT-116 colon
HCT-15 colon = system: HCT-15 colon
HL-60(TB) leukemia = system: HL-60(TB) leukemia
HOP-62 NSCLC = system: HOP-62 NSCLC
HOP-92 NSCLC = system: HOP-92 NSCLC
HS 578T breast = system: HS 578T breast
HT29 colon = system: HT29 colon
IGROV1 ovarian = system: IGROV1 ovarian
K-562 leukemia = system: K-562 leukemia
KM12 colon = system: KM12 colon
LOX IMVI melanoma = system: LOX IMVI melanoma
M14 melanoma = system: M14 melanoma
MALME-3M melanoma = system: MALME-3M melanoma
MCF7 breast = system: MCF7 breast
MDA-MB-231 breast = system: MDA-MB-231 breast
MDA-MB-435 = system: MDA-MB-435
MDA-MB-468 breast = system: MDA-MB-468 breast
MOLT-4 leukemia = system: MOLT-4 leukemia
NCI-H226 lung = system: NCI-H226 lung
NCI-H23 lung = system: NCI-H23 lung
NCI-H460 lung = system: NCI-H460 lung
NCI-H522 lung = system: NCI-H522 lung
NCI/ADR-RES ovarian = system: NCI/ADR-RES ovarian
OVCAR-3 ovarian = system: OVCAR-3 ovarian
OVCAR-4 ovarian = system: OVCAR-4 ovarian
OVCAR-5 ovarian = system: OVCAR-5 ovarian
OVCAR-8 ovarian = system: OVCAR-8 ovarian
PC-3 prostate = system: PC-3 prostate
RPMI-8226 leukemia = system: RPMI-8226 leukemia
RXF 393 renal = system: RXF 393 renal
SF-268 CNS = system: SF-268 CNS
SF-295 CNS = system: SF-295 CNS
SF-539 CNS = system: SF-539 CNS
SK-MEL-2 melanoma = system: SK-MEL-2 melanoma
SK-MEL-28 melanoma = system: SK-MEL-28 melanoma
SK-MEL-5 melanoma = system: SK-MEL-5 melanoma
SK-OV-3 ovarian = system: SK-OV-3 ovarian
SN12C renal = system: SN12C renal
SNB-19 CNS = system: SNB-19 CNS
SNB-75 CNS = system: SNB-75 CNS
SR leukemia = system: SR leukemia
SW-620 colon = system: SW-620 colon
T-47D breast = system: T-47D breast
TK-10 renal = system: TK-10 renal
U251 CNS = system: U251 CNS
UACC-257 melanoma = system: UACC-257 melanoma
UACC-62 melanoma = system: UACC-62 melanoma
UO-31 renal = system: UO-31 renal

CCN1CCN(c2ccc(NC(=O)Nc3ccc(-c4cc(C(=O)NC)c5ncccc5n4)cc3)cc2C(F)(F)F)CC1
GI50 (786-0 renal): 295 nM
TGI (786-0 renal): 583 nM
GI50 (A498 renal): 2740 nM
TGI (A498 renal): 5310 nM
GI50 (A549 NSCLC): 466 nM
TGI (A549 NSCLC): 1300 nM
GI50 (ACHN renal): 2390 nM
TGI (ACHN renal): 4730 nM
GI50 (BT-549 breast): 2780 nM
TGI (BT-549 breast): 5670 nM
GI50 (CAKI-1 renal): 3010 nM
TGI (CAKI-1 renal): 5600 nM
GI50 (CCRF-CEM leukemia): 461 nM
TGI (CCRF-CEM leukemia): 1270 nM
GI50 (COLO 205 colon): 4150 nM
TGI (COLO 205 colon): 14200 nM
GI50 (DU-145 prostate): 2230 nM
TGI (DU-145 prostate): 4900 nM
GI50 (EKVX NSCLC): 2940 nM
TGI (EKVX NSCLC): 5630 nM
GI50 (HCC-2998 colon): 2830 nM
TGI (HCC-2998 colon): 5310 nM
GI50 (HCT-116 colon): 1120 nM
TGI (HCT-116 colon): 4830 nM
GI50 (HCT-15 colon): 333 nM
TGI (HCT-15 colon): 697 nM
GI50 (HL-60(TB) leukemia): 3420 nM
TGI (HL-60(TB) leukemia): > 18000 nM
GI50 (HOP-62 NSCLC): 2790 nM
TGI (HOP-62 NSCLC): 5410 nM
GI50 (HOP-92 NSCLC): 2450 nM
TGI (HOP-92 NSCLC): 5670 nM
GI50 (HS 578T breast): 2390 nM
TGI (HS 578T breast): 6880 nM
GI50 (HT29 colon): 525 nM
TGI (HT29 colon): 2110 nM
GI50 (IGROV1 ovarian): 3010 nM
TGI (IGROV1 ovarian): 5610 nM
GI50 (K-562 leukemia): 657 nM
TGI (K-562 leukemia): > 18000 nM
GI50 (KM12 colon): 3250 nM
TGI (KM12 colon): 6650 nM
GI50 (LOX IMVI melanoma): 674 nM
TGI (LOX IMVI melanoma): 2660 nM
GI50 (M14 melanoma): 400 nM
TGI (M14 melanoma): 1050 nM
GI50 (MALME-3M melanoma): 286 nM
TGI (MALME-3M melanoma): 532 nM
GI50 (MCF7 breast): 293 nM
TGI (MCF7 breast): 608 nM
GI50 (MDA-MB-231 breast): 2780 nM
TGI (MDA-MB-231 breast): 5250 nM
GI50 (MDA-MB-435): 269 nM
TGI (MDA-MB-435): 564 nM
GI50 (MDA-MB-468 breast): 2480 nM
TGI (MDA-MB-468 breast): 5030 nM
GI50 (MOLT-4 leukemia): 689 nM
TGI (MOLT-4 leukemia): > 18000 nM
GI50 (NCI-H226 lung): 2700 nM
TGI (NCI-H226 lung): 6360 nM
GI50 (NCI-H23 lung): 2680 nM
TGI (NCI-H23 lung): 5680 nM
GI50 (NCI-H460 lung): 664 nM
TGI (NCI-H460 lung): 2920 nM
GI50 (NCI-H522 lung): 3230 nM
TGI (NCI-H522 lung): 6400 nM
GI50 (NCI/ADR-RES ovarian): 1780 nM
TGI (NCI/ADR-RES ovarian): 8090 nM
GI50 (OVCAR-3 ovarian): 2550 nM
TGI (OVCAR-3 ovarian): 5060 nM
GI50 (OVCAR-4 ovarian): 2630 nM
TGI (OVCAR-4 ovarian): 5640 nM
GI50 (OVCAR-5 ovarian): 2820 nM
TGI (OVCAR-5 ovarian): 5230 nM
GI50 (OVCAR-8 ovarian): 3850 nM
TGI (OVCAR-8 ovarian): 10500 nM
GI50 (PC-3 prostate): 2880 nM
TGI (PC-3 prostate): 6030 nM
GI50 (RPMI-8226 leukemia): 3050 nM
TGI (RPMI-8226 leukemia): > 18000 nM
GI50 (RXF 393 renal): 494 nM
TGI (RXF 393 renal): 1660 nM
GI50 (SF-268 CNS): 3090 nM
TGI (SF-268 CNS): 7000 nM
GI50 (SF-295 CNS): 2050 nM
TGI (SF-295 CNS): 4470 nM
GI50 (SF-539 CNS): 2300 nM
TGI (SF-539 CNS): 4570 nM
GI50 (SK-MEL-2 melanoma): 9870 nM
TGI (SK-MEL-2 melanoma): > 18000 nM
GI50 (SK-MEL-28 melanoma): 322 nM
TGI (SK-MEL-28 melanoma): 582 nM
GI50 (SK-MEL-5 melanoma): 2050 nM
TGI (SK-MEL-5 melanoma): 4260 nM
GI50 (SK-OV-3 ovarian): 3480 nM
TGI (SK-OV-3 ovarian): 7500 nM
GI50 (SN12C renal): 2770 nM
TGI (SN12C renal): 5300 nM
GI50 (SNB-19 CNS): 2970 nM
TGI (SNB-19 CNS): 5480 nM
GI50 (SNB-75 CNS): 842 nM
TGI (SNB-75 CNS): 3820 nM
GI50 (SR leukemia): 670 nM
TGI (SR leukemia): > 18000 nM
GI50 (SW-620 colon): 314 nM
TGI (SW-620 colon): 621 nM
GI50 (T-47D breast): 3720 nM
TGI (T-47D breast): > 18000 nM
GI50 (TK-10 renal): 3860 nM
TGI (TK-10 renal): 6630 nM
GI50 (U251 CNS): 2700 nM
TGI (U251 CNS): 5530 nM
GI50 (UACC-257 melanoma): 3050 nM
TGI (UACC-257 melanoma): 6000 nM
GI50 (UACC-62 melanoma): 3060 nM
TGI (UACC-62 melanoma): 5660 nM
GI50 (UO-31 renal): 2710 nM
TGI (UO-31 renal): 5140 nM

Source: PubChem BioAssay (NCI)
